Reference: patent US20100234238A1, “METHOD FOR PROFILING KINASE INHIBITORS” (Janssen Pharmaceutica N V, priority 2006, published 2010)

Experiments:
Her2 = Her2 (Homo sapiens, UniProt P04626); assay: Her2 inhibition; format: biochemical
[1] = test system: 27 cell lines, representing diverse cancer cell types; assay: Inhibition of proliferation of cell lines in vitro (response status); format: cell-based; set-up: key: R = Responder to MTKI; NR = Non-Responder to MTKI; settings: MTKI
Protocol: (§1) It was tested whether the Pamchip peptide arrays are a useful tool to predict the response of a cell line to the multi-targeted kinase inhibitor, MTKI. MTKI inhibits the proliferation of a range of cell lines in vitro with widely varying IC50's. The lysates prepared from these 27 cell lines, representing diverse cancer cell types, were profiled on the peptide arrays in the absence or presence of 5 μM MTKI, in 6 replicates for each condition. In this panel, 13 cell lines were defined as responder cell lines (IC50<3 μM; cell lines are ordered according to increasing IC50 in Example 1, whereas 14 cell lines are classified as ‘non-responder’ cell lines (IC50>10 μM). Intermediary cell lines and cell lines with highly variable IC50 measurements were omitted from the analysis. The experiment included the highly responsive H3255 lung cancer cell line, which overexpresses mutant EGFR L858R. This mutant variant is highly responsive to MTKI, which is an ATP-competitive compound that binds to the active conformation of EGFR (similar to erlotinib and gefitinib). Accordingly, the most profound changes induced by MTKI in lysate kinase activity can be observed for this highly responsive cell line. To identify those peptides for which the inhibition of phosphorylation by MTKI correlates well with the response status of the cell line from which the lysate was prepared, a statistical mixed-model was set up to identify those peptides that are most likely to change after MTKI treatment in responder cell lysates compared to non-responder lysates, taken into account the inter-replicate variability (see the material and methods section for a more detailed description of the statistical test). […] To illustrate that the inhibition of the phosphorylation of these peptides in a given lysate does indeed correlate with the response of the corresponding cell line to MTKI, the following cut-off was chosen to classify responders and non-responders: minimally 4 peptides out of the 16 peptide list should be inhibited with a ratio of less than 0.8 (more than 20% inhibition) to classify as a responder. Applying this rule to all 27 cell lines indicates an overall classification accuracy of 82% (with 78% sensitivity, and 86% specificity). […] Note that the use of these […] peptides as a classification tool can be optimized according to the required sensitivity and specificity.

[2] = test system: 27 cell lines, representing diverse cancer cell types; assay: as above; format: cell-based; settings: response to MTKI
Protocol: as §1

EGFR L858R = EGFR L858R (Homo sapiens, UniProt P00533, L858R); assay: IC50 on mutant EGFR; format: biochemical
xenograft tumors = assay: Response of subcutaneous xenograft tumors to MTKI in vivo; set-up: species or system nude immuno-compromised mice; key: R = Responder to MTKI; NR = Non-Responder to MTKI
Protocol: To explore whether a similar approach allows for the classification of responder and non-responder tumors, the same strategy as above was applied to 12 different xenograft tumors, which were subcutaneously grown in nude immuno-compromised mice from human cancer cell lines. […] Lysates were made from homogenized frozen tumor blocks and analyzed in the absence or presence of 5 μM MTKI, as before.

Sequence of Her2 (P04626 23-1255): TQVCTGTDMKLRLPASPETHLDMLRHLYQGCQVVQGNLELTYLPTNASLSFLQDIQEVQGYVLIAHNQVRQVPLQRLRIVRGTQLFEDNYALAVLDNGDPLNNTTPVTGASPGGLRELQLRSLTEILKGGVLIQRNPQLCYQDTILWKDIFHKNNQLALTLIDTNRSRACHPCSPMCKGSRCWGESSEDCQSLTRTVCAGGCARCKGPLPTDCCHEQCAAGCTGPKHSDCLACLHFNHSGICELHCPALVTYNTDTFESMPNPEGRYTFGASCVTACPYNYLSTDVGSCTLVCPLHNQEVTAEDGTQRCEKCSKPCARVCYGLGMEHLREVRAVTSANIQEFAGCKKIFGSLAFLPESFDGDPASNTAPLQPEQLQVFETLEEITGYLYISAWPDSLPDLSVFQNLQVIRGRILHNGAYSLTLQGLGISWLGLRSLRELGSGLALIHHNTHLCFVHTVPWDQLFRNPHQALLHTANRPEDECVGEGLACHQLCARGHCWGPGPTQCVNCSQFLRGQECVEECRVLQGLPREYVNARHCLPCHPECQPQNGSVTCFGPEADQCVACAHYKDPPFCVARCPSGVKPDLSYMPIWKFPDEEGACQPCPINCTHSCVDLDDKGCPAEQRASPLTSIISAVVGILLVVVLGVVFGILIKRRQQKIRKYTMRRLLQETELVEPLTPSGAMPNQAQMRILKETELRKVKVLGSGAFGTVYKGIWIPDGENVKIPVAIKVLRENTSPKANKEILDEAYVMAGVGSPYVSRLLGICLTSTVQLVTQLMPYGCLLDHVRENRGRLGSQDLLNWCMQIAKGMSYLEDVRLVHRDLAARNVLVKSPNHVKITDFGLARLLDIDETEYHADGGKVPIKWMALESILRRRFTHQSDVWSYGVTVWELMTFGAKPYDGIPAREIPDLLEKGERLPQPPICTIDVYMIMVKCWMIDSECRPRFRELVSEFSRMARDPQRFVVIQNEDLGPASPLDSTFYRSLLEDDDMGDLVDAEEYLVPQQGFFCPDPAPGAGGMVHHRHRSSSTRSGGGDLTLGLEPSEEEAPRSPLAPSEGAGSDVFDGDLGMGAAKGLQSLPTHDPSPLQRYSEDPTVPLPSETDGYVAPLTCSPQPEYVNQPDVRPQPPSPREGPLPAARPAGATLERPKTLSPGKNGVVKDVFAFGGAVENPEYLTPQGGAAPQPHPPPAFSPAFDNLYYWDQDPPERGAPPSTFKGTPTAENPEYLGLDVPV
Sequence of EGFR L858R (P00533 25-1210 L858R): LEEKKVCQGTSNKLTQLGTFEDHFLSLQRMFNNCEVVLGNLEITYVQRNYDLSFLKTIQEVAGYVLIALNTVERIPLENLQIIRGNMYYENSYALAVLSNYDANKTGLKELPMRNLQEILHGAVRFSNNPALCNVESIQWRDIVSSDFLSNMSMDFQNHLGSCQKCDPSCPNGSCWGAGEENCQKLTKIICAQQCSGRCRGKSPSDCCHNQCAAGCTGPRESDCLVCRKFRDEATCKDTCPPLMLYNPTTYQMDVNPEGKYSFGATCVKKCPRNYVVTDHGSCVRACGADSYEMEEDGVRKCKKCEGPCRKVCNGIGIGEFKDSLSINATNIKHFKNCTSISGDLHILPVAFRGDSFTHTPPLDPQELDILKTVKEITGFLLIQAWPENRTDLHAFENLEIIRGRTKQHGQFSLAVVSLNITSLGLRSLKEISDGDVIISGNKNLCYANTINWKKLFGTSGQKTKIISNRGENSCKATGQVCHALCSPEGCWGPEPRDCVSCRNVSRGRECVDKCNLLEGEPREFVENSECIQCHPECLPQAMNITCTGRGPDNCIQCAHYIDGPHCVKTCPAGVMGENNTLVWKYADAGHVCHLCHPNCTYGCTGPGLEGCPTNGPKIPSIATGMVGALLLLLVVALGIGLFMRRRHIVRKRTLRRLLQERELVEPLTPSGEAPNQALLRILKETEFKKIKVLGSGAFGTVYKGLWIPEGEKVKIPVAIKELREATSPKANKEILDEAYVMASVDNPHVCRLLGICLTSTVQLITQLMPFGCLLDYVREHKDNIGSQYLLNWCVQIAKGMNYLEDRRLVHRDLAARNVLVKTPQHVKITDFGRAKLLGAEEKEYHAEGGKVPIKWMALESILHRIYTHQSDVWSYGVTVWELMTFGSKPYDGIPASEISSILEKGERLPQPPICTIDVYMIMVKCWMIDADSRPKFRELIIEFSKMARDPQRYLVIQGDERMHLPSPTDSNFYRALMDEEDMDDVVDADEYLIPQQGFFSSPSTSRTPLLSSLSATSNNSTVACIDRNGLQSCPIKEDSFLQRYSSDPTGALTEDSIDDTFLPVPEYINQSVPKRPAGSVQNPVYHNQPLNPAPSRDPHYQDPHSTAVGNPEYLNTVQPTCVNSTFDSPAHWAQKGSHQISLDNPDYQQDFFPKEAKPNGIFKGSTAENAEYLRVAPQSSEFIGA

## COc1cc2ncnc3c2cc1OCCCCCN(C)Cc1ccc(Br)cc1N3 [MTKI, 4,6-ethanediylidenepyrimido[4,5-b][6,1,12]benzoxadiazacyclopentadecine, 17-bromo-8,9,10,11,12,13,14,19-octahydro-20-methoxy-13-methyl-]
Her2
  inhibition of Her2 compared to Tarceva: better inhibitor than Tarceva
[1]; A431 cell line
  response status: R
[1]; DU145 cell line
  response status: R
[1]; H2009 cell line
  response status: R
[1]; H3255 cell line
  response status: R
[1]; N87 cell line
  response status: R
[1]; SKBR3 cell line
  response status: R
[1]; SUM149 cell line
  response status: R
[2]; BT474OD cell line
  IC50: < 3 µM
[2]; COLO 699, Colo699 cell line
  IC50: < 3 µM
[2]; HEK239, HEK239 cell line
  IC50: > 10 µM
[2]; HT1373 cell line
  IC50: > 10 µM
[2]; Homo sapiens, A-431, A431 cell line
  IC50: < 3 µM
[2]; Homo sapiens, DU-145, DU145 cell line
  IC50: < 3 µM
[2]; Homo sapiens, GTL 16, GTL16 cell line
  IC50: > 10 µM
[2]; Homo sapiens, MCF7, MCF7 cell line
  IC50: > 10 µM
[2]; Homo sapiens, MDA-MB-435S, MDAMB435s cell line
  IC50: > 10 µM
[2]; Homo sapiens, MKN-45, MKN45 cell line
  IC50: > 10 µM
[2]; Homo sapiens, MOLT-4, MOLT4 cell line
  IC50: > 10 µM
[2]; Homo sapiens, NCI-H23, H23 cell line
  IC50: > 10 µM
[2]; Homo sapiens, NCI-H1650, H1650 cell line
  IC50: > 10 µM
[2]; Homo sapiens, NCI-H2009, H2009 cell line
  IC50: < 3 µM
[2]; Homo sapiens, NCI-H2122, H2122 cell line
  IC50: < 3 µM
[2]; Homo sapiens, NCI-H3255, H3255 cell line
  IC50: < 3 µM
[2]; Homo sapiens, NCI-N87, NCI-N87 cell line
  IC50: < 3 µM
[2]; Homo sapiens, SH-SY5Y, SHSY5Y cell line
  IC50: > 10 µM
[2]; Homo sapiens, SK-BR-3, SKBR3 cell line
  IC50: < 3 µM
[2]; Homo sapiens, SNU-5, SNU5 cell line
  IC50: > 10 µM
[2]; Homo sapiens, U-118-MG, U118MG cell line
  IC50: > 10 µM
[2]; MDA231PAR cell line
  IC50: > 10 µM
[2]; NCI-H322, H322 cell line
  IC50: < 3 µM
[2]; RSJSA1 cell line
  IC50: > 10 µM
[2]; SNU-484, SNU484 cell line
  IC50: < 3 µM
[2]; SUM149, SUM149 cell line
  IC50: < 3 µM
[2]; SUM159, SUM159 cell line
  IC50: < 3 µM
EGFR L858R
  IC50 on EGFR 1858R compared to Tarceva: lower IC50
Xenograft tumors; A431 xenograft tumor
  response status: R
Xenograft tumors; BT474 xenograft tumor
  response status: R
Xenograft tumors; DU145 xenograft tumor
  response status: R
Xenograft tumors; H322 xenograft tumor
  response status: R
Xenograft tumors; H3255 xenograft tumor
  response status: R
Xenograft tumors; SUM149 xenograft tumor
  response status: R
